In this experiment the target is ALCAT1 (Homo sapiens (Human), UniProt Q6UWP7). Put plainly: In vitro acyltransferase assay for ALCAT1 inhibitors. Particulars: for % inh @ 1 μM / inhibition at 1 µM: 1 μM compound, in vitro enzymatic assay; for IC50: ALCAT1 enzyme activity. Type of experiment: biochemical. The essentials: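 Membrane fractions from Sf9 cells expressing human ALCAT1 incubated 30 min at room temperature with 100 µM MLCL or LPG and 25 µM [14C]acyl-CoA (or 100 µM NBD-CoA) in 50 mM Tris/HCl pH 7.0.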
Sequence of ALCAT1 (Q6UWP7 whole entry): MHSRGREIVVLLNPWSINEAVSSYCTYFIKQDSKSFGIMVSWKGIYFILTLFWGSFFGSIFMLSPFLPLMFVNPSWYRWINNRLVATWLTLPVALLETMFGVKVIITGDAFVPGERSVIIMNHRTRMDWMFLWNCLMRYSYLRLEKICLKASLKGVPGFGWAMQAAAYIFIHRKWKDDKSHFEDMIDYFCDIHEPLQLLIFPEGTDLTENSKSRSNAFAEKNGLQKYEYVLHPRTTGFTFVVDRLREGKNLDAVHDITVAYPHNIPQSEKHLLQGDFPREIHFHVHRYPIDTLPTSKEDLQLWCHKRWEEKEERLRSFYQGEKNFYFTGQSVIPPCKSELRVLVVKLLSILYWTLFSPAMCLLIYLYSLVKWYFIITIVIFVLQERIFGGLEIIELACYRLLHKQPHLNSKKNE

[1] abbreviates: triplicates, GraphPad, read-out: IC50.

The term inhibition denotes the percentage by which the read-out fell short of the control. Lower therefore signals a weak effect. In general, IC50 refers to the midpoint of a concentration-inhibition curve.

Where two headings read alike, the source gives them in different places.

In the case of `CCOc1ccccc1C(=O)Nc1cc(-c2nnc(-c3ccco3)o2)ccc1F` [Compound 215, 2-Ethoxy-N-(2-fluoro-5-(5-(furan-2-yl)-1,3,4-oxadiazol-2-yl)phenyl)benzamide], the “% inh @ 1 μM” value is listed as 100/100% and the inhibition at 1 µM came out at 100%. Also, the half-maximal inhibitory concentration (IC50) (read-out: IC50 values (upper bounds)) was below 100 nM. For the same compound, the half-inhibitory concentration (IC50) under setting [1] amounted to 26 nM.

In the case of `CC(C)COc1ccccc1C(=O)Nc1cccc(-c2nnc(-c3ccco3)o2)c1` [Compound 217], the “% inh @ 1 μM” value came out at 68% and 1 µM produced 69% inhibition.

As for `CCOc1ccc(C)cc1C(=O)Nc1cccc(-c2nnc(-c3ccco3)o2)c1` [Compound 218, 2-Ethoxy-N-(3-(5-(furan-2-yl)-1,3,4-oxadiazol-2-yl)phenyl)-5-methylbenzamide], the “% inh @ 1 μM” value was 98% and the inhibition at 1 µM stood at 99%. Also, the IC50 under setting [1] is 67 nM.

In the case of `COc1c(F)cccc1C(=O)Nc1cccc(-c2nnc(-c3ccco3)o2)c1` [Compound 220], the “% inh @ 1 μM” value is 94% and at 1 µM the inhibition was 96%. Further, the IC50 under setting [1] came to 120 nM.

With `O=C(Nc1cccc(-c2nnc(-c3ccco3)o2)c1)c1ccccc1OCC(F)(F)F` [Compound 223], the “% inh @ 1 μM” value stood at 90% and the inhibition at 1 µM worked out at 94%. For the same compound, under setting [1], the IC50 came out at 150 nM.

Take `Cc1ccc(OCC(F)(F)F)c(C(=O)Nc2cccc(-c3nnc(-c4ccco4)o3)c2)c1` [Compound 224]: the “% inh @ 1 μM” value was 97% and the inhibition at 1 µM amounted to 91%. Further, under setting [1], the IC50 is 190 nM.

`O=C(Nc1cccc(-c2nnc(-c3ccco3)o2)c1)c1cc(Cl)ccc1OCC(F)(F)F` [Compound 225, 5-Chloro-N-(3-(5-(furan-2-yl)-1,3,4-oxadiazol-2-yl)phenyl)-2-(2,2,2-trifluoroethoxy)benzamide]: the “% inh @ 1 μM” value is 97% and the inhibition at 1 µM was 92%. Further, the IC50 under setting [1] was 100 nM.

As to `O=C(Nc1cccc(-c2nnc(-c3ccco3)o2)c1)c1cc(Br)ccc1OCC(F)(F)F` [Compound 226, 5-Bromo-N-(3-(5-(furan-2-yl)-1,3,4-oxadiazol-2-yl)phenyl)-2-(2,2,2-trifluoroethoxy)benzamide], the “% inh @ 1 μM” value is 99% and the inhibition at 1 µM worked out at 100%. Moreover, the half-maximal inhibitory concentration (IC50) under setting [1] is 60 nM.

On to `O=C(Nc1cccc(-c2nnc(-c3ccco3)o2)c1)c1cccc2ccoc12` [Compound 227], for which the “% inh @ 1 μM” value is on record as 89% and testing at 1 µM gave an inhibition of 85%. Moreover, the IC50 under setting [1] worked out at 160 nM.

Take `O=C(Nc1cccc(-c2nnc(-c3ccco3)o2)c1)c1cc(F)ccc1OCC(F)(F)F` [Compound 228, 5-Fluoro-N-(3-(5-(furan-2-yl)-1,3,4-oxadiazol-2-yl)phenyl)-2-(2,2,2-trifluoroethoxy)benzamide]: the “% inh @ 1 μM” value is 99% and the inhibition at 1 µM is 100%. For the same compound, the IC50 under setting [1] was found to be 72 nM.

On to `O=C(Nc1cc(Cl)ccc1F)c1cccc(-c2nnc(-c3ccco3)o2)c1` [Compound 229], for which the “% inh @ 1 μM” value is given as 97/97% and the inhibition at 1 µM stood at 97%. The IC50 under setting [1] was 170 nM.

As to `COc1ccc(Cl)cc1NC(=O)c1cccc(-c2nnc(-c3ccco3)o2)c1` [Compound 230], the “% inh @ 1 μM” value was found to be 89% and testing at 1 µM gave an inhibition of 94%. Moreover, the concentration for half-maximal inhibition (IC50) under setting [1] is 410 nM.

In the case of `O=C(Nc1cccc(-c2nnc(-c3ccco3)o2)c1)c1ccccc1OC(F)(F)F` [Compound 232], the “% inh @ 1 μM” value is given as 61/61% and the inhibition at 1 µM was 61%.

With `O=C(Nc1cccc(-c2nnc(-c3ccco3)o2)c1)c1cccc(OC(F)(F)F)c1` [Compound 233], the “% inh @ 1 μM” value is on record as 65% and 1 µM produced 68% inhibition.

For `O=C(Nc1cccc(-c2nnc(-c3ccco3)o2)c1)c1cccc(C(F)(F)F)c1` [Compound 234], the “% inh @ 1 μM” value was 42% and testing at 1 µM gave an inhibition of 46%.

`O=C(Nc1cccc(-c2nnc(-c3ccco3)o2)c1)c1cccnc1` [Compound 235]: the inhibition at 1 µM was determined as 12%.

Take `O=C(Nc1cccc(-c2nnc(-c3ncco3)o2)c1)c1ccccc1F` [Compound 236]: the “% inh @ 1 μM” value is 8% and the inhibition at 1 µM amounted to 7%.

As to `O=C(Nc1cccc(-c2nnc(-c3ccco3)o2)c1)c1ccncc1` [Compound 237], the “% inh @ 1 μM” value is listed as 46% and the inhibition at 1 µM is 35%.

As to `O=C(Nc1cccc(-c2nnc(-c3ccco3)o2)c1)c1cccc(-c2ccccc2)c1` [Compound 238], the “% inh @ 1 μM” value is 23/23% and the inhibition at 1 µM turned out to be 23%.

Consider `CCc1ccccc1C(=O)Nc1cccc(-c2nnc(-c3ccco3)o2)c1` [Compound 240], for which the “% inh @ 1 μM” value was found to be 6% and the inhibition at 1 µM came to 12%.

Turning to `CS(=O)(=O)c1ccccc1C(=O)Nc1cccc(-c2nnc(-c3ccco3)o2)c1` [Compound 248], the “% inh @ 1 μM” value worked out at 50% and at 1 µM the inhibition was 30%.

With `Cc1ccc(F)c(NC(=O)c2cccc(-c3nnc(-c4ccco4)o3)c2)c1` [Compound 271], the “% inh @ 1 μM” value is listed as 84% and testing at 1 µM gave an inhibition of 83%. For the same compound, the IC50 under setting [1] came out at 780 nM.

Consider `O=C(Nc1cccc(-c2nnc(-c3ccco3)o2)c1)c1ccccc1OC(F)F` [Compound 273], for which the “% inh @ 1 μM” value was 96% and testing at 1 µM gave an inhibition of 97%. The 50% inhibitory concentration (IC50) under setting [1] came out at 120 nM.

Take `O=C(Nc1cccc(-c2nnc(-c3ccco3)o2)c1)c1ccccc1OCC(F)F` [Compound 275]: the “% inh @ 1 μM” value was found to be 99% and testing at 1 µM gave an inhibition of 98%. Further, under setting [1], the concentration for half-maximal inhibition (IC50) came out at 200 nM.

On to `CC(C)c1cccc(C(=O)Nc2cccc(-c3nnc(-c4ccco4)o3)c2)c1` [Compound 277], for which the “% inh @ 1 μM” value is 23/23% and the inhibition at 1 µM came out at 23%.

Take `COc1ccc(C(F)(F)F)cc1C(=O)Nc1cccc(-c2nnc(-c3ccco3)o2)c1` [Compound 278]: the “% inh @ 1 μM” value worked out at 100% and at 1 µM the inhibition was 97%. Also, the IC50 under setting [1] came to 120 nM.

Regarding `CCc1ccc(OC)c(C(=O)Nc2cccc(-c3nnc(-c4ccco4)o3)c2)c1` [Compound 280], the “% inh @ 1 μM” value was 100% and the inhibition at 1 µM stood at 94%. Besides, under setting [1], the IC50 worked out at 120 nM.

`O=C(Nc1cccc(-c2nnc(-c3ccco3)o2)c1)c1cc(Cl)ccc1OCC(F)F` [Compound 286]: the IC50 under setting [1] stood at 120 nM.

With `O=C(Nc1cc(-c2ncc(-c3ccco3)o2)ccc1F)c1cccnc1F` [Compound 288], the “% inh @ 1 μM” value is reported as 59% and the inhibition at 1 µM was found to be 48%.

Take `O=C(Nc1cc(-c2nnc(-c3cncs3)o2)ccc1F)c1ccccc1F` [Compound 290, 2-fluoro-N-(2-fluoro-5-(5-(thiazol-5-yl)-1,3,4-oxadiazol-2-yl)phenyl)benzamide]: the “% inh @ 1 μM” value came to 31% and the inhibition at 1 µM stood at 24%.

In the case of `O=C(Nc1cccc(-c2nnc(-c3cncs3)o2)c1)c1ccccc1F` [Compound 292], the “% inh @ 1 μM” value is 12% and 1 µM produced 14% inhibition.

`O=C(Nc1cc(Cl)cc(-c2nnc(-c3ccco3)o2)c1)c1ccccc1F` [Compound 295]: at 1 µM the inhibition was 37%.

In the case of `O=C(Nc1cccc(-c2nnc(-c3ccco3)o2)c1)c1cccc2c1OCCC2` [Compound 296], the “% inh @ 1 μM” value was determined as 73% and the inhibition at 1 µM was 55%.

For `O=C(Nc1cccc(-c2nnc(-c3ccco3)o2)c1Cl)c1ccccc1F` [Compound 297], the “% inh @ 1 μM” value is 83% and testing at 1 µM gave an inhibition of 75%. Also, the concentration for half-maximal inhibition (IC50) under setting [1] came out at 290 nM.

For the compound `O=C(Nc1cccc(-c2nnc(-c3cc[nH]n3)o2)c1)c1ccccc1F` [Compound 298, N-(3-(5-(1H-pyrazol-3-yl)-1,3,4-oxadiazol-2-yl)phenyl)-2-fluorobenzamide], the inhibition at 1 µM came out at 15%.

With `O=C(Nc1cc(-c2nnc(-c3ccco3)o2)ccc1F)c1ccccc1OC(F)(F)F` [Compound 301, N-(2-Fluoro-5-(5-(furan-2-yl)-1,3,4-oxadiazol-2-yl)phenyl)-2-(trifluoromethoxy)benzamide], the IC50 under setting [1] was 100 nM.

As to `O=C(Nc1cc(-c2nnc(-c3ccco3)s2)ccc1F)c1ccccc1F` [Compound 325], testing at 1 µM gave an inhibition of 63%.

The compound `O=C(Nc1cc(-c2nnc(-c3ccco3)o2)ccc1F)c1ccc2c(c1)COC2` [Compound 331] displayed an inhibition at 1 µM of 12%.

In turn, `Cc1c(C(=O)Nc2cc(-c3nnc(-c4ccco4)o3)ccc2F)cccc1[N+](=O)[O-]` [Compound 332] had an inhibition at 1 µM of 30%.

In turn, `COc1ccc(C(=O)Nc2cc(-c3nnc(-c4ccco4)o3)ccc2F)cc1[N+](=O)[O-]` [Compound 333] displayed an inhibition at 1 µM of 18%.

Turning to `Cc1ccc(C(=O)Nc2cc(-c3nnc(-c4ccco4)o3)ccc2F)cc1[N+](=O)[O-]` [Compound 334], 1 µM produced 35% inhibition.

Turning to `O=C(Nc1cccc(-c2nnc(-c3ccco3)o2)c1)c1cc([N+](=O)[O-])ccc1F` [Compound 336], at 1 µM the inhibition was 66%.

In the case of `O=C(Nc1cccc(-c2nnc(-c3ccco3)o2)c1)c1cc([N+](=O)[O-])ccc1Cl` [Compound 337], 1 µM produced 66% inhibition. Moreover, under setting [1], the 50% inhibitory concentration (IC50) amounted to 760 nM.

Regarding `O=C(Nc1cccc(-c2nnc(-c3ccco3)o2)c1)c1cc(F)cc([N+](=O)[O-])c1` [Compound 338], the inhibition at 1 µM is 65%.

In the case of `O=C(Nc1cccc(-c2nnc(-c3ccco3)o2)c1)c1cccc([N+](=O)[O-])c1F` [Compound 340], 1 µM produced 72% inhibition.

The compound `COc1ccc([N+](=O)[O-])cc1C(=O)Nc1cccc(-c2nnc(-c3ccco3)o2)c1` [Compound 341] registered an inhibition at 1 µM of 73%. Moreover, under setting [1], the half-inhibitory concentration (IC50) amounted to 500 nM.

The compound `COc1cc(C(=O)Nc2cccc(-c3nnc(-c4ccco4)o3)c2)cc([N+](=O)[O-])c1` [Compound 342] returned an inhibition at 1 µM of 41%.

Turning to `O=C(Nc1cccc(-c2nnc(-c3ccco3)o2)c1)c1c(F)ccc([N+](=O)[O-])c1F` [Compound 344], 1 µM produced 33% inhibition.

The values are drawn from patent US11208404B2 (PERENNA PHARMACEUTICALS, INC., priority 2017, dated 2021).
